# Results from patent US20240041908A1, “IMMUNOMODULATORY OLIGOSACCHARIDES FOR THE TREATMENT OF AUTISM SPECTRUM DISORDER” (Intrinsic Medicine, Inc., priority 2020, published 2024).
# Read-outs that look alike come from different tables or passages of the source.
# Assays:
# TNFα and IL-8 = settings: independent anti-inflammatory effects; cited from earlier work
# [1] = test system: child, diagnosed with ASD with frequent anxiety and episodes of self harm; test: Case report: child diagnosed with ASD given oral 3′-sialyllactose daily; assay type: in vivo, human; settings: 40-50 mg/kg per day orally once a day
# Procedure: A child, diagnosed with ASD with frequent anxiety and episodes of self harm, was given 40-50 mg/kg per day 3′-sialyllactose (Glycom, food grade, GRAS) dosed orally once a day.
# [2] = test system: murine and human derived macrophages stimulated with LPS; settings: cited from earlier work; for IL-1β, IL-2, IL-4, IL-6, IL-12, IFNγ or TNF-α: in vitro
smiles,measurement,setting,value
"CC1O[C@@H](OC2[C@H](O[C@H]3C(O)C(O)C(O)O[C@H]3CO)OC(CO)[C@H](O)[C@@H]2O)C(O)[C@@H](O)[C@@H]1O (some centres unmarked) [2′fucosyllactose, 2′-fucosyllactose]",TNFα and IL-8,TNFα and IL-8,reduction
CC(=O)N[C@H]1C([C@H](O)[C@H](O)CO)O[C@@](O[C@@H]2C(O)[C@H](O[C@@H]3C(CO)O[C@@H](O)C(O)[C@H]3O)OC(CO)[C@@H]2O)(C(=O)O)C[C@H]1O (some centres unmarked) [3′-sialyllactose],heart rate,[1]; measured by parent before and after treatment,reduction in heart rate
same,anxiety,[1]; noted by parent,significant decrease
same,self-harm episodes,[1]; noted by parent,significant decrease
same,"PDL1, COX2 and select chemokines such as CCL2 (MCP1) and CCL5",[2],reduce
same,"IL-1β, IL-2, IL-4, IL-6, IL-12, IFNγ or TNF-α",[2]; listed as 3′-SL,more significant reductions
same,"IL-1β, IL-2, IL-4, IL-6, IL-12, IFNγ or TNF-α",[2]; listed as 3′SL,reductions
"CC(=O)N[C@H]1C([C@H](O)[C@H](O)CO)O[C@@](OCC2O[C@@H](O[C@@H]3C(CO)O[C@@H](O)C(O)[C@H]3O)C(O)[C@@H](O)[C@H]2O)(C(=O)O)C[C@H]1O (some centres unmarked) [6′SL, 6′-sialyllactose]","IL-1β, IL-2, IL-4, IL-6, IL-12, IFNγ or TNF-α",[2],reductions
